Source: PubChem BioAssay AID624167 (Sanford-Burnham Center for Chemical Genomics, 2012)
pIC50: −log10 of the molar value. The source made the active and inactive calls.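 How the source made its calls: active means mean IC50 for reducing PEG3 promoter reporter signal at or below a set limit, with IC50 above the limit in both counter screens; inactive means the rest, including counter screen hits.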

Key:
PEG-3 [1] = assay: Peg3 promoter luciferase inhibitors, potency, dose response, cell-based, HeLa, CREF/GAPDH counter-screen panel (AID 624167); conditions: HeLa PEG-Prom luciferase reporter, overnight, CREF/GAPDH counter-screens
PEG-3 [2] = molecular target: PEG-3 (UniProt Q6IN02); assay: as above; conditions: HeLa PEG-Prom luciferase reporter, overnight, CREF/GAPDH counter-screens, mean of runs
[3] = run 1, dose range 1, individual replicate IC50 per panel
[4] = run 2, dose range 1, individual replicate IC50 per panel

Sequence of PEG-3 (UniProt Q6IN02) (Q6IN02 whole entry, looked up): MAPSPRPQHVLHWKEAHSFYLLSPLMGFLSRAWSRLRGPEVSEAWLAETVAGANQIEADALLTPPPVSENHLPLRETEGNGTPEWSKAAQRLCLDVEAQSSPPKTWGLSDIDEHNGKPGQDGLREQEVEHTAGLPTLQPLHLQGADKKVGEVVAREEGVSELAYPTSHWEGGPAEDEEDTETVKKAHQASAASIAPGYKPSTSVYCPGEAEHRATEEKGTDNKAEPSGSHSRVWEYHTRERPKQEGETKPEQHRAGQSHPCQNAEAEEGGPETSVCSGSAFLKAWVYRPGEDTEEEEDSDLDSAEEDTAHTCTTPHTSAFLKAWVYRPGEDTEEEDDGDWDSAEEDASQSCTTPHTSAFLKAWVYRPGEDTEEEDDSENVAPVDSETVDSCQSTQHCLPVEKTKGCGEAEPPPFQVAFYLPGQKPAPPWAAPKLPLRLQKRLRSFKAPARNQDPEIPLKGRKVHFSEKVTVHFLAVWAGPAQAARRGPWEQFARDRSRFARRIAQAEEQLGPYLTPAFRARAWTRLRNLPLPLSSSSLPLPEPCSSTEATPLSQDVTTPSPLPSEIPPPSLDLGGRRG

SMILES	pIC50 (PEG-3 [1]; [3])	pIC50 (PEG-3 [1]; [4])	IC50 (PEG-3 [2])	pIC50 (PEG-3 [2])
COc1ccc2sc(N(CCCN(C)C)C(=O)c3ccc(S(=O)(=O)N4CCCc5ccccc54)cc3)nc2c1	4.68	4.66	inactive	
CC(C)CC(N)c1csc(Nc2ccc(C(=O)c3ccccc3)cc2)n1 (stereo not drawn)	4.51	4.53	inactive	
COc1ccc(CN(C)C(=O)c2cc(-c3ccc(C)cc3C)nc3ccccc23)c(OC)c1OC	4.83	4.61		4.70
O=Cc1cn(Cc2ccc(Br)cc2)c2ccccc12	4.36	< 4.00	inactive	
CNC[C@H](CC1CCCCC1)NC[C@H](NCCC1CCCC1)[C@H](C)O	4.42	4.91	inactive	
CN(C)CC1CCC/C(=C\c2ccc(OC(=O)/C=C/c3ccccc3)cc2)C1=O (stereo not drawn)	4.66	5.14		4.84
N/C(=N\OC(=O)c1ccccc1)C(Cc1ccccc1)C(=O)NOC(=O)c1ccccc1 (stereo not drawn)	4.82	4.96		4.89
C/C(=N\N=C(N)N)c1ccc(Cl)cc1Cl	4.73	4.76		4.74
Cc1cc(/C=c2/sc3nc4ccccc4n3c2=O)c(C)n1-c1ccccn1	4.66	4.51	inactive	
Cc1ccc(N(Cc2cc(=O)[nH]c3ccccc23)C(=O)CCl)c(C)c1	4.64	4.53	inactive	
Cc1ccc2cc3c(N)c4c(C)ccc(C)c4nc3nc2c1	< 4.00	4.77	inactive	
CCCN(CCC)CCCNC(=S)Nc1ccc2nc(N3CCCC3)cc(C)c2c1	4.56	4.72	inactive	
CCCCCCCNC(=O)C1(CC2CC(c3ccccc3)=NO2)CCNCC1 (stereo not drawn)	4.45	4.78	inactive	
CCC1=C(CC2NCCc3ccccc32)CC2c3cc(OC)c(OC)cc3CCN2C1 (stereo not drawn)	4.82	4.88		4.85
CN(C)CCNC(=O)/C(=C/c1ccc(-c2ccc(Cl)cc2)o1)NC(=O)c1ccccc1	4.74	5.02		4.86
Cc1ccc(S(=O)(=O)CCSC(=N)N)cc1	4.44	4.37	inactive	
O=Cc1cn(Cc2ccc([N+](=O)[O-])cc2)c2ccccc12	< 4.00	< 4.00	> 100 µM (inactive)	
CC(C)CC(NS(=O)(=O)OCC(Cl)(Cl)Cl)c1ccccc1 (stereo not drawn)	4.32	4.76	inactive	
O=C(CCN1C(=O)/C(=C/c2ccc(F)cc2)SC1=S)N[C@@H](CO)Cc1ccccc1	4.92	< 4.00	inactive	
COc1cc(NC(=O)Nc2nc(C(N)CCc3ccccc3)cs2)cc(OC)c1OC (stereo not drawn)	4.67	4.39	inactive	
CC(=O)OCCNc1cc(SCc2ccco2)c2nonc2c1[N+](=O)[O-]	4.57	4.69	inactive	
O=C(c1ccccc1)N(C(=O)c1ccccc1)c1ncnc2c1C(c1ccccc1)c1c(ccc3ccccc13)O2 (stereo not drawn)	5.36	< 4.00	inactive	

SMILES	pIC50 (PEG-3 [1]; [3])	pIC50 (PEG-3 [1]; [4])	IC50 (PEG-3 [2])	pIC50 (PEG-3 [2])
COc1cc(C(=O)/C=C/c2cccnc2)c([N+](=O)[O-])cc1OC	4.71	4.76		4.74
O=Cc1cn(Cc2cccc(F)c2)c2ccccc12	4.65	4.41	inactive	
CC(C)CC(N)c1csc(NC(=O)Nc2ccccc2C(C)C)n1 (stereo not drawn)	4.52	5.86		4.80
O=C(Nc1ccccc1)c1nc[nH]c1C(=O)NCCCNC(=O)c1[nH]cnc1C(=O)Nc1ccccc1	4.77	< 4.00	inactive	
O=C1CCC2S/C(=C/Nc3ccc(C(F)(F)F)cc3)C(=O)N12 (stereo not drawn)	5.19	4.32	inactive	
Cc1c(CCOC(=O)C23CC4CC(CC(C)(C4)C2)C3)sc[n+]1CC(=O)c1ccccc1	4.66	4.66	inactive	
CCOC(=O)c1sc2nc(CSc3ccccc3)nc(N3CCCN(C)CC3)c2c1C	4.71	4.71		4.71
CCCCNc1nc(=S)n(-c2ccccc2)c(C)c1C(C)=O	4.66	4.90		4.76
CCN(Cc1ccccc1)S(=O)(=O)c1ccc(C(=O)N(CCCN(C)C)c2nc3cc4c(cc3s2)OCO4)cc1	4.71	4.80		4.75
CC(C)(C)c1ccc(OCCCNCc2ccccc2)cc1	4.54	4.74	inactive	
c1ccc(C(=NNc2nc3ccccc3s2)c2ccccn2)cc1	5.18	4.60		4.80
CCN1CCN(Cc2c(O)ccc3c2O/C(=C\C=C\c2ccccc2)C3=O)CC1	4.33	4.94	inactive	
O=C(CCN1C(=O)/C(=C/c2cccs2)SC1=S)N1CCCCC1	4.61	4.59	inactive	
COc1cccc(Nc2nc(C(N)C3CCCCC3)cs2)n1 (stereo not drawn)	4.66	4.32	inactive	
CCN(CC)CCOc1ccc(/C(=C(/Cl)c2ccccc2)c2ccccc2)cc1	4.65	4.94		4.77
CN[C@H]1C[C@H]2c3[nH]c4ccc(-c5cccc(C)c5)cc4c3CCN2C[C@H]1[C@H](C)O	4.73	5.08		4.87
CCN1C/C(=C/c2ccc(N3CCOCC3)cc2)C(=O)/C(=C/c2ccc(N3CCOCC3)cc2)C1	4.80	4.89		4.84
OC[C@@H]1[C@@H](c2ccc(Cl)cc2)C(c2cccc(Cl)c2)=NN1c1ccccc1	4.52	4.78	inactive	
Cc1c(C(=O)N2CCC3(CC2)OCCO3)sc2ncnc(N3CCN(c4ccccn4)CC3)c12	4.62	4.54	inactive	
COc1cccc(NC(=O)CN(C)C(=O)c2cc(-c3ccc(F)cc3)nc3ccccc23)c1	4.59	4.35	inactive	
Cc1nc2c(OCc3ccc(OC(F)F)cc3)cccn2c1N(C)C(=O)CCC1CCCC1	4.54	4.63	inactive	
COc1ccccc1NC(=O)Nc1nc(C(N)CCc2ccccc2)cs1 (stereo not drawn)	4.91	4.79		4.85

SMILES	pIC50 (PEG-3 [1]; [3])	pIC50 (PEG-3 [1]; [4])	IC50 (PEG-3 [2])	pIC50 (PEG-3 [2])
CCN(c1ccccc1)S(=O)(=O)c1ccc(C(=O)N(CCCN(C)C)c2nc3cc4c(cc3s2)OCO4)cc1	4.63	4.71	inactive	
COc1ccc(C2c3ccc4ccccc4c3Oc3ncn(CCCO)c(=N)c32)cc1 (stereo not drawn)	4.64	4.77		4.70
COc1ccc(NC(=O)N(C)[C@H]2C[C@H]3c4[nH]c5ccc(-c6cccc(C)c6)cc5c4CCN3C[C@H]2[C@H](C)O)cc1	4.63	4.64	inactive	
Fc1ccc([C@@H]2CCNC[C@H]2COc2ccc3c(c2)OCO3)cc1	4.70	4.72		4.71
CCCCCCOc1ccc(/C(C)=N/NC2=NCCN2)cc1	4.81	5.09		4.92
CCN(CC)CCn1c2ccccc2c2cnc(N)c(C#N)c21	4.95	4.89		4.92
CCC1CCCCN1S(=O)(=O)c1ccc(C(=O)N(CCCN(C)C)c2nc3cc4c(cc3s2)OCO4)cc1 (stereo not drawn)	4.66	4.30	inactive	
Cc1cccc(-n2ncc3c(N(C)C4CCCCC4)ncnc32)c1	4.65	4.57	inactive	
COc1cccc2sc(N(CCCN(C)C)C(=O)C(c3ccccc3)c3ccccc3)nc12	4.74	4.74		4.74
CCc1nc(Sc2nnnn2-c2ccccc2)c2c3c(sc2n1)CCCC3	4.61	4.79	inactive	
COc1ccccc1CN(C)C(=O)c1cc(-c2cccs2)nc2ccccc12	4.85	4.90		4.87
COc1ccc(OC)c(-c2cc(C(=O)N3CCN(c4ncccn4)CC3)c3ccccc3n2)c1	4.46	< 4.00	inactive	
CC(=O)Nc1cccc(-c2cc(NC=O)c3ncc(-c4ccc(C(C)=O)cc4)n3c2)c1	5.22	< 4.00	inactive	
CCN(CC)c1ccc2nc3ccc(N)cc3[n+](-c3ccccc3)c2c1	5.00	4.91		4.95
Cc1ccc2cccc(OCC(=O)Nc3cccc(S(=O)(=O)N4CCCC4)c3)c2n1	4.65	4.47	inactive	
CC1(Cc2ccc(Cl)c(Cl)c2)C(=O)Nc2ccc(S(=O)(=O)NC3CCCCC3)cc21 (stereo not drawn)	4.74	4.76		4.75
O=C(CCl)Nc1cccc(-c2cnc3ccccc3n2)c1	< 4.00	4.88	inactive	
Cc1ccc(S(=O)(=O)c2nc(-c3ccccc3Cl)oc2N(C)C2CCN(C)CC2)cc1	4.49	4.69	inactive	
CSc1ccc(CN(C)C(=O)C(Cc2ccccc2)NC(=O)c2ccccc2)cc1 (stereo not drawn)	4.67	4.61	inactive	
CCOC(=O)c1c(NC(=O)COc2ccccc2F)sc2c1CC(C)(C)NC2(C)C	4.76	4.46	inactive	
Cc1cccc(C)c1-n1nnnc1C(c1ccccc1OC(F)(F)F)N1CCC(n2c(=O)[nH]c3ccccc32)CC1 (stereo not drawn)	4.68	5.33		4.90
O=Cc1cn(Cc2ccc(F)cc2)c2ccccc12	4.90	4.62		4.74
